1 substance from US20130183706A1, “Method for Culturing Adipocytes” (ASSISTANCE PUBLIQUE-HOPITAUX DE PARIS, priority 2010, published 2013) can be followed below.

The test relates to Akt phosphorylation in mature adipocytes. The experiment in a line: Measurement of insulin sensitivity (Ser473 Akt phosphorylation, immunoelectrophoresis). Particulars: insulin 10 nM, 15 to 30 minutes; freshly isolated adipocytes (2D) and adipocytes kept 48 h in hydrogel (3D). It counts as cell-based, human. The method, then:
The mature adipocytes are isolated by collagenase treatment of human adipose tissue. The subcutaneous human adipose tissue of young women (<45 years) who are not obese (BMI<30) is cut up in digestion medium (DMEM, 2% essentially fatty acid free albumin (A6003, Sigma, St Louis, […]., USA), 1 mg/ml collagenase A (Roche Diagnostics, Mannheim, Germany)) in the proportion of 1 g of tissue per 2 ml of digestion medium in polypropylene tubes. The tubes are placed at 37° C. for […] with agitation (200 cycles/minute). After digestion, the medium is filtered through woven cotton gauze. The mature adipocytes are left to decant by floating for 5 minutes and are then washed 3 times with 5 volumes of 10% sucrose. At the end of the final wash, the sucrose is removed and the mature adipocytes are ready to be incorporated into the PuraMatrix™ hydrogel.
The wells containing the hydrogel/adipocytes deprived of insulin the day before are incubated with the incubation medium (150 μl) (DMEM/F12 and 10 nM insulin). The plates are then placed in the incubator for 15 to 30 minutes. […] The signals are detected by chemiluminescence (Detection ECL, GE Healthcare) and quantified by densitometry.

On to Insulin: major anabolic hormone, for which the “Akt phosphorylation (Ser473)” value is on record as “stimulates”.
